Measurements taken from PMC5218480 (PLoS ONE, 2017).

System: MV-4-11 cells
Assay: Gene expression microarray analysis (Affymetrix PrimeView) and GSEA
Format: cell-based, human
Parameters: RFU PODN (11730768_x_at) / Fold change /veh PODN (11730768_x_at) / RFU LINC00158 (11744669_a_at) / Fold change /veh LINC00158 (11744669_a_at) / RFU DUSP10 (11751237_a_at) / Fold change /veh DUSP10 (11751237_a_at) / RFU ID3 (11757404_x_at) / Fold change /veh ID3 (11757404_x_at) / RFU PLEKHG5 (11737974_s_at) / Fold change /veh PLEKHG5 (11737974_s_at) / RFU LRRC4B (11730491_at) / Fold change /veh LRRC4B (11730491_at) / RFU GIMAP4 (11747438_a_at) / Fold change /veh GIMAP4 (11747438_a_at) / RFU KRT8 (11758183_x_at) / Fold change /veh KRT8 (11758183_x_at) / RFU CNN1 (11734310_a_at) / Fold change /veh CNN1 (11734310_a_at) / RFU VPS37D (11726825_at) / Fold change /veh VPS37D (11726825_at) / RFU C10orf10 (11716522_x_at) / Fold change /veh C10orf10 (11716522_x_at) / RFU KIR2DL2 /// KIR2DL4 /// KIR2DL5A /// KIR2DL5B /// KIR2DS1 /// KIR2DS2 /// KIR2DS3 /// KIR2DS4 /// KIR3DL3 /// KIR3DL3 /// KIR3DS1 (11738374_at) / Fold change /veh KIR2DL2 /// KIR2DL4 /// KIR2DL5A /// KIR2DL5B /// KIR2DS1 /// KIR2DS2 /// KIR2DS3 /// KIR2DS4 /// KIR3DL3 /// KIR3DL3 /// KIR3DS1 (11738374_at) / RFU C1QL1 (11718748_at) / Fold change /veh C1QL1 (11718748_at) / RFU TMPRSS4 (11747572_a_at) / Fold change /veh TMPRSS4 (11747572_a_at) / RFU HAMP (11756126_x_at) / Fold change /veh HAMP (11756126_x_at) / RFU RNFT2 (11725882_a_at) / Fold change /veh RNFT2 (11725882_a_at) / RFU NR4A2 (11747474_a_at) / Fold change /veh NR4A2 (11747474_a_at) / RFU ABCC12 (11746883_a_at) / Fold change /veh ABCC12 (11746883_a_at) / RFU TMEM136 (11760407_x_at) / Fold change /veh TMEM136 (11760407_x_at) / RFU CLDN22 /// WWC2 (11732394_at) / Fold change /veh CLDN22 /// WWC2 (11732394_at) / RFU HLA-DPB1 (11760878_x_at) / Fold change /veh HLA-DPB1 (11760878_x_at) / RFU SPINT1 (11716480_a_at) / Fold change /veh SPINT1 (11716480_a_at) / RFU GAP43 (11754022_s_at) / Fold change /veh GAP43 (11754022_s_at) / RFU A4GNT (11735810_at) / Fold change /veh A4GNT (11735810_at) / RFU PRB3 (11715151_x_at) / Fold change /veh PRB3 (11715151_x_at) / RFU TUBB4B (11761932_at) / Fold change /veh TUBB4B (11761932_at) / RFU CAPN14 (11732068_a_at) / Fold change /veh CAPN14 (11732068_a_at) / RFU TMCC2 (11721928_a_at) / Fold change /veh TMCC2 (11721928_a_at) / RFU IRGQ (11745062_a_at) / Fold change /veh IRGQ (11745062_a_at) / RFU FAM174B (11720279_a_at) / Fold change /veh FAM174B (11720279_a_at) / RFU TMPRSS4 (11748680_a_at) / Fold change /veh TMPRSS4 (11748680_a_at) / RFU FAM212B (11763350_a_at) / Fold change /veh FAM212B (11763350_a_at) / RFU PLEKHG5 (11743358_a_at) / Fold change /veh PLEKHG5 (11743358_a_at) / RFU ZSCAN30 (11745921_a_at) / Fold change /veh ZSCAN30 (11745921_a_at) / RFU CMKLR1 (11741424_a_at) / Fold change /veh CMKLR1 (11741424_a_at) / RFU LOC101060620 /// MAPK8IP1 (11723275_at) / Fold change /veh LOC101060620 /// MAPK8IP1 (11723275_at) / RFU SPTSSB (11747773_x_at) / Fold change /veh SPTSSB (11747773_x_at) / RFU PRSS12 (11739890_at) / Fold change /veh PRSS12 (11739890_at) / RFU BIN1 (11741810_x_at) / Fold change /veh BIN1 (11741810_x_at) / RFU WNT11 (11732464_a_at) / Fold change /veh WNT11 (11732464_a_at) / RFU C10orf10 (11716521_a_at) / Fold change /veh C10orf10 (11716521_a_at) / RFU C5orf56 (11738089_at) / Fold change /veh C5orf56 (11738089_at) / RFU CYB561 (11721691_x_at) / Fold change /veh CYB561 (11721691_x_at) / RFU ANKRD19P (11752326_a_at) / Fold change /veh ANKRD19P (11752326_a_at) / RFU OR2T12 /// OR2T33 /// OR2T8 (11738714_s_at) / Fold change /veh OR2T12 /// OR2T33 /// OR2T8 (11738714_s_at) / RFU VCAN (11748164_a_at) / Fold change /veh VCAN (11748164_a_at) / RFU JSRP1 (11732532_at) / Fold change /veh JSRP1 (11732532_at) / RFU KRTAP10-11 (11738290_x_at) / Fold change /veh KRTAP10-11 (11738290_x_at) / RFU MYO3A (11730013_a_at) / Fold change /veh MYO3A (11730013_a_at) / RFU EBF3 (11725865_a_at) / Fold change /veh EBF3 (11725865_a_at) / RFU CAMK2N1 (11719241_x_at) / Fold change /veh CAMK2N1 (11719241_x_at) / RFU C5orf56 (11738088_a_at) / Fold change /veh C5orf56 (11738088_a_at) / RFU OLFML3 (11715873_a_at) / Fold change /veh OLFML3 (11715873_a_at) / RFU LOC100653217 /// NTM (11731650_a_at) / Fold change /veh LOC100653217 /// NTM (11731650_a_at) / RFU MAPK11 (11762145_a_at) / Fold change /veh MAPK11 (11762145_a_at) / RFU FIZ1 (11724087_x_at) / Fold change /veh FIZ1 (11724087_x_at) / RFU OASL (11726364_x_at) / Fold change /veh OASL (11726364_x_at) / RFU SOX15 (11748057_x_at) / Fold change /veh SOX15 (11748057_x_at) / RFU CD79A (11719716_a_at) / Fold change /veh CD79A (11719716_a_at) / RFU HIST1H1D (11736915_at) / Fold change /veh HIST1H1D (11736915_at) / RFU CASKIN2 (11723855_a_at) / Fold change /veh CASKIN2 (11723855_a_at) / RFU LOC730098 (11760151_x_at) / Fold change /veh LOC730098 (11760151_x_at) / RFU OR4N2 (11742367_at) / Fold change /veh OR4N2 (11742367_at) / RFU PRRT2 (11749266_a_at) / Fold change /veh PRRT2 (11749266_a_at) / RFU SNX32 (11753110_a_at) / Fold change /veh SNX32 (11753110_a_at) / RFU CDHR5 (11726645_a_at) / Fold change /veh CDHR5 (11726645_a_at) / RFU RCAN1 (11760418_a_at) / Fold change /veh RCAN1 (11760418_a_at) / RFU FAM167A (11723789_a_at) / Fold change /veh FAM167A (11723789_a_at) / RFU FAM26E (11764081_at) / Fold change /veh FAM26E (11764081_at) / RFU ISYNA1 (11749810_s_at) / Fold change /veh ISYNA1 (11749810_s_at) / RFU ACY1 (11761880_at) / Fold change /veh ACY1 (11761880_at) / RFU 11764098_at / Fold change /veh 11764098_at / RFU SAMD14 (11745864_x_at) / Fold change /veh SAMD14 (11745864_x_at) / RFU NPB (11741838_a_at) / Fold change /veh NPB (11741838_a_at) / RFU TMPRSS6 (11731388_a_at) / Fold change /veh TMPRSS6 (11731388_a_at) / RFU KRTAP10-2 (11738614_at) / Fold change /veh KRTAP10-2 (11738614_at) / RFU ARHGAP8 /// PRR5-ARHGAP8 (11727945_x_at) / Fold change /veh ARHGAP8 /// PRR5-ARHGAP8 (11727945_x_at) / RFU KRTAP5-7 /// NADSYN1 (11734609_at) / Fold change /veh KRTAP5-7 /// NADSYN1 (11734609_at) / RFU RASL12 (11751679_a_at) / Fold change /veh RASL12 (11751679_a_at) / RFU CDKN2B (11736163_a_at) / Fold change /veh CDKN2B (11736163_a_at) / RFU PRF1 (11729649_at) / Fold change /veh PRF1 (11729649_at) / RFU, ZNF638 /// ZNF638-IT1 / Fold change vs veh, ZNF638 /// ZNF638-IT1 / RFU, PANK3 / Fold change vs veh, PANK3 / RFU, SH3YL1 / Fold change vs veh, SH3YL1 / RFU, ZEB2 / Fold change vs veh, ZEB2 / RFU, NRIP1 / Fold change vs veh, NRIP1 / RFU, PTTG1IP / Fold change vs veh, PTTG1IP / RFU, CAPN2 / Fold change vs veh, CAPN2 / RFU, MED14 / Fold change vs veh, MED14 / RFU, SNORA58 / Fold change vs veh, SNORA58 / RFU, C1orf63 / Fold change vs veh, C1orf63 / RFU, LRRFIP1 / Fold change vs veh, LRRFIP1 / RFU, NDUFAF7 / Fold change vs veh, NDUFAF7 / RFU, SLC12A2 / Fold change vs veh, SLC12A2 / RFU, IBTK / Fold change vs veh, IBTK / RFU, ESF1 / Fold change vs veh, ESF1 / Fold change vs veh, TMEM50B / RFU, TAOK1 / Fold change vs veh, TAOK1 / RFU, ACBD3 / Fold change vs veh, ACBD3 / RFU, TMA16 / Fold change vs veh, TMA16 / RFU, RWDD3 / Fold change vs veh, RWDD3 / RFU, BCAT1 / Fold change vs veh, BCAT1 / RFU, EDEM3 / Fold change vs veh, EDEM3 / RFU, TMEM33 / Fold change vs veh, TMEM33 / RFU, WDR75 / Fold change vs veh, WDR75 / RFU, AHCTF1 / Fold change vs veh, AHCTF1 / RFU, TFRC / Fold change vs veh, TFRC / RFU, ZDHHC17 / Fold change vs veh, ZDHHC17 / RFU, NOM1 / Fold change vs veh, NOM1 / RFU, ARL8B / Fold change vs veh, ARL8B / RFU, ZBTB11 / Fold change vs veh, ZBTB11 / RFU, TAMM41 / Fold change vs veh, TAMM41 / RFU, KIAA1704 /// LOC100996395 / Fold change vs veh, KIAA1704 /// LOC100996395 / RFU, ING1 / Fold change vs veh, ING1 / RFU, TRMT61B / Fold change vs veh, TRMT61B / RFU, FUBP3 / Fold change vs veh, FUBP3 / RFU, TP53 / Fold change vs veh, TP53 / RFU, TNKS2 / Fold change vs veh, TNKS2 / RFU, ZFP14 / Fold change vs veh, ZFP14 / RFU, ACTR2 / Fold change vs veh, ACTR2 / RFU, PPP3R1 / Fold change vs veh, PPP3R1 / RFU, PIK3R1 / Fold change vs veh, PIK3R1 / RFU, HNRNPA1 / Fold change vs veh, HNRNPA1 / RFU, RNF170 / Fold change vs veh, RNF170 / RFU, ZNF28 / Fold change vs veh, ZNF28 / RFU, RNGTT / Fold change vs veh, RNGTT / RFU, OGT / Fold change vs veh, OGT / RFU, BRD1 / Fold change vs veh, BRD1 / RFU, MARS / Fold change vs veh, MARS / RFU, ZNF655 / Fold change vs veh, ZNF655 / RFU, FAHD1 / Fold change vs veh, FAHD1 / RFU, BDP1 / Fold change vs veh, BDP1 / RFU, LRRCC1 / Fold change vs veh, LRRCC1 / RFU, ARID1A / Fold change vs veh, ARID1A / RFU, ZNF146 / Fold change vs veh, ZNF146 / RFU, ZNF330 / Fold change vs veh, ZNF330 / RFU, GPN3 / Fold change vs veh, GPN3 / RFU, C9orf123 / Fold change vs veh, C9orf123 / RFU, N4BP2L2 / Fold change vs veh, N4BP2L2 / RFU, ARFIP1 / Fold change vs veh, ARFIP1 / RFU, FAM179B / Fold change vs veh, FAM179B / RFU, BCL10 / Fold change vs veh, BCL10 / RFU, UHRF1BP1L / Fold change vs veh, UHRF1BP1L / RFU, BET1 / Fold change vs veh, BET1 / RFU, CNOT2 / Fold change vs veh, CNOT2 / RFU, ZNF268 / Fold change vs veh, ZNF268 / Fold change vs veh, ZNF507 / RFU, DGCR2 / Fold change vs veh, DGCR2 / RFU, WDSUB1 / Fold change vs veh, WDSUB1 / Fold change vs veh, HSP90B1 /// MIR3652 / RFU, ADSS / Fold change vs veh, ADSS / RFU, GK / Fold change vs veh, GK / RFU, ZNF148 / Fold change vs veh, ZNF148 / RFU, TAF9 / Fold change vs veh, TAF9 / RFU, SLC1A5 / Fold change vs veh, SLC1A5 / RFU, SLMO2 / Fold change vs veh, SLMO2 / RFU, ABCC4 / Fold change vs veh, ABCC4 / RFU, LOC101060439 /// RAP1B / Fold change vs veh, LOC101060439 /// RAP1B / RFU, RFX7 / Fold change vs veh, RFX7 / RFU, GTPBP10 / Fold change vs veh, GTPBP10 / RFU, CNEP1R1 / Fold change vs veh, CNEP1R1 / RFU, BIVM-ERCC5 /// ERCC5 / Fold change vs veh, BIVM-ERCC5 /// ERCC5 / RFU, ILF3 / Fold change vs veh, ILF3 / RFU 11762660_at / Fold change /veh 11762660_at / RFU VCAN (11757783_s_at) / Fold change /veh VCAN (11757783_s_at) / RFU DDX43 (11728927_at) / Fold change /veh DDX43 (11728927_at) / RFU KRT8 (11758188_x_at) / Fold change /veh KRT8 (11758188_x_at) / RFU NKD1 (11759106_at) / Fold change /veh NKD1 (11759106_at) / RFU SRD5A1 (11742802_a_at) / Fold change /veh SRD5A1 (11742802_a_at) / RFU TPSAB1 /// TPSB2 (11721975_s_at) / Fold change /veh TPSAB1 /// TPSB2 (11721975_s_at) / RFU GSTM3 (11746129_a_at) / Fold change /veh GSTM3 (11746129_a_at) / RFU IL23R (11737362_x_at) / Fold change /veh IL23R (11737362_x_at) / RFU TMEM51 (11727254_a_at) / Fold change /veh TMEM51 (11727254_a_at) / RFU PIWIL2 (11732686_x_at) / Fold change /veh PIWIL2 (11732686_x_at) / RFU ORM1 (11744905_x_at) / Fold change /veh ORM1 (11744905_x_at) / RFU CCDC152 (11743942_at) / Fold change /veh CCDC152 (11743942_at) / RFU ECM1 (11717891_a_at) / Fold change /veh ECM1 (11717891_a_at) / RFU IL23R (11748794_a_at) / Fold change /veh IL23R (11748794_a_at) / RFU TNFAIP8L3 (11732012_x_at) / Fold change /veh TNFAIP8L3 (11732012_x_at) / RFU MBOAT4 (11741988_at) / Fold change /veh MBOAT4 (11741988_at) / RFU 11764193_at / Fold change /veh 11764193_at / RFU TMEM53 (11763286_at) / Fold change /veh TMEM53 (11763286_at) / RFU MAGEB2 (11727129_at) / Fold change /veh MAGEB2 (11727129_at) / RFU TMEM200A (11744735_a_at) / Fold change /veh TMEM200A (11744735_a_at) / RFU CCDC152 (11751479_a_at) / Fold change /veh CCDC152 (11751479_a_at) / RFU FAM211A (11726209_a_at) / Fold change /veh FAM211A (11726209_a_at) / RFU RGS16 (11746705_a_at) / Fold change /veh RGS16 (11746705_a_at) / RFU VCAN (11755009_s_at) / Fold change /veh VCAN (11755009_s_at) / RFU RHOB (11743442_s_at) / Fold change /veh RHOB (11743442_s_at) / RFU RGS16 (11720943_a_at) / Fold change /veh RGS16 (11720943_a_at) / RFU RGS16 (11720944_at) / Fold change /veh RGS16 (11720944_at) / RFU, VPS4B / Fold change vs veh, VPS4B / RFU, CREB1 / Fold change vs veh, CREB1 / RFU, DNAJC13 / Fold change vs veh, DNAJC13 / RFU, GNAQ / Fold change vs veh, GNAQ / RFU, CDK5R1 / Fold change vs veh, CDK5R1 / RFU, ZRANB3 / Fold change vs veh, ZRANB3 / RFU, CUL4A / Fold change vs veh, CUL4A / RFU, CCNY / Fold change vs veh, CCNY / RFU, UFL1 / Fold change vs veh, UFL1 / RFU, COG3 / Fold change vs veh, COG3 / RFU, DIAPH2 / Fold change vs veh, DIAPH2 / RFU, SKA2 / Fold change vs veh, SKA2 / RFU, AFF3 / Fold change vs veh, AFF3 / RFU, LMF1 / Fold change vs veh, LMF1 / RFU, IPO11 / Fold change vs veh, IPO11 / RFU, DFFB / Fold change vs veh, DFFB / RFU, FOXP1 / Fold change vs veh, FOXP1 / RFU, CARD8 / Fold change vs veh, CARD8 / RFU, STRN3 / Fold change vs veh, STRN3 / RFU, ADK / Fold change vs veh, ADK / RFU, RASSF2 / Fold change vs veh, RASSF2 / RFU, WIPF1 / Fold change vs veh, WIPF1 / RFU, LARP1B / Fold change vs veh, LARP1B / RFU, RASA1 / Fold change vs veh, RASA1 / RFU, RB1 / Fold change vs veh, RB1 / RFU, PPFIA1 / Fold change vs veh, PPFIA1 / RFU, MAT2A / Fold change vs veh, MAT2A / RFU, CCT5 / Fold change vs veh, CCT5 / RFU, WDR92 / Fold change vs veh, WDR92 / RFU, CUX1 / Fold change vs veh, CUX1 / RFU, TTC7A / Fold change vs veh, TTC7A / RFU, TMEM135 / Fold change vs veh, TMEM135 / RFU, DEPTOR / Fold change vs veh, DEPTOR / RFU, CPM / Fold change vs veh, CPM / RFU, DNAJB6 / Fold change vs veh, DNAJB6 / RFU, CACNA2D3 / Fold change vs veh, CACNA2D3 / RFU, DTX4 / Fold change vs veh, DTX4 / RFU, TFCP2 / Fold change vs veh, TFCP2 / RFU, GMCL1 /// GMCL1P1 / Fold change vs veh, GMCL1 /// GMCL1P1 / RFU, AEBP2 / Fold change vs veh, AEBP2 / RFU, SNHG1 /// SNORD22 /// SNORD25 /// SNORD26 /// SNORD27 /// SNORD28 /// SNORD29 /// SNORD31 / Fold change vs veh, SNHG1 /// SNORD22 /// SNORD25 /// SNORD26 /// SNORD27 /// SNORD28 /// SNORD29 /// SNORD31 / Fold change (Aza/veh), C12orf56 (ProbeSet 11735607_a_at) / Fold change (ACY-1035/veh), C12orf56 (ProbeSet 11735607_a_at) / Fold change (Aza/veh), FGFR1OP (ProbeSet 11751329_s_at) / Fold change (ACY-1035/veh), FGFR1OP (ProbeSet 11751329_s_at) / Fold change (Aza/veh), VPS36 (ProbeSet 11739960_a_at) / Fold change (ACY-1035/veh), VPS36 (ProbeSet 11739960_a_at) / RFU SYPL1 (11715823_x_at) / Fold change /veh SYPL1 (11715823_x_at) / RFU IGFBP7 (11715501_s_at) / Fold change /veh IGFBP7 (11715501_s_at) / RFU REEP3 (11722064_at) / Fold change /veh REEP3 (11722064_at) / RFU IGLL1 (11728026_x_at) / Fold change /veh IGLL1 (11728026_x_at): dose or concentration left out as unconfirmed
Conditions: ProbeSet 11747889_x_at; LIST B

SMILES: Nc1ccc(-c2cccs2)cc1NC(=O)c1ccc2c(c1)cc(C1CC1)n2CCN1CCOCC1 [ACY-1035]
- RFU, SH3YL1: 65.52 RFU
